In patent publication US20240342117A1, “Inhalable Epinephrine Formulation” (De Motu Cordis Pty Ltd, priority 2022, published 2024) one finds tendency to agglomerate data, which are given here for one compound.

The structures appear in SMILES notation.

The conditions of the data set: over 4 weeks of storage.

Take `CNC[C@H](O)c1ccc(O)c(O)c1` [micronized epinephrine bitartrate, epinephrine bitartrate]: the tendency to agglomerate entry is on record as “naturally tends to agglomerate”.
